Results on seven compounds are retold here after the NIST ThermoML archive (doi:10.1016/j.jct.2005.03.013).

Numbers after ± are expanded uncertainties.

For series [1] the following is noted: for viscosity: 101.33 kPa, Liquid.
The nature of series [2]: molar heat capacity at constant pressure. As to conditions: 101.33 kPa, Liquid, Large sample (1 g) DSC.

For orientation: viscosity means the resistance of a fluid to flow. As for `CCOS(=O)(=O)[O-].CC[n+]1cccc(C)c1` [1-ethyl-3-methylpyridinium ethylsulfate], the viscosity in series [1] (283 K) is recorded as 414 ± 39 mPa·s; in series [1] (293 K) it was 204 ± 17 mPa·s; in series [1] (298 K), 150 ± 10 mPa·s; in series [1] (303 K) it was 114 ± 7 mPa·s; in series [1] (313 K) it was 70 ± 4 mPa·s; in series [1] (323 K), 45 ± 2 mPa·s. Also, the viscosity amounted to 32 ± 2 mPa·s in series [1] (333 K) and 23 ± 1 mPa·s in series [1] (343 K). Besides, the Glass transition temperature in series [1] was -71 ± 3 °C. The “molar heat capacity at constant pressure” value in series [2] (298 K) worked out at 389 ± 39 J/K/mol; in series [2] (323 K), 402 ± 41 J/K/mol.

Consider `CCCCCCn1cc[n+](C)c1.F[B-](F)(F)F` [1-hexyl-3-methylimidazolium tetrafluoroborate], for which, in series [1], the Glass transition temperature was -79 ± 4 °C. Also, the entries for the “molar heat capacity at constant pressure” value in series [2] (298 K) and in series [2] (323 K) were 416 ± 42 J/K/mol and 433 ± 44 J/K/mol, respectively.

For `CCCCCCCC[n+]1ccn(C)c1.F[B-](F)(F)F` [1-methyl-3-octylimidazolium tetrafluoroborate], the Glass transition temperature in series [1] is -81 ± 4 °C. The “molar heat capacity at constant pressure” value in series [2] (298 K) is reported as 506 ± 51 J/K/mol; in series [2] (323 K), 526 ± 53 J/K/mol.

With `CCOC(=O)c1ccc[n+](CC)c1.CCOS(=O)(=O)[O-]` [3-(ethoxycarbonyl)-1-ethylpyridinium ethylsulfate], the viscosity in series [1] (283 K) was 19610 ± 4800 mPa·s; in series [1] (293 K), 5675 ± 1200 mPa·s; in series [1] (298 K), 3173 ± 570 mPa·s; in series [1] (303 K) it was 1986 ± 310 mPa·s; in series [1] (313 K), 846 ± 110 mPa·s; in series [1] (323 K), 405 ± 40 mPa·s. The viscosity came out at 221 ± 17 mPa·s in series [1] (333 K) and 130 ± 9 mPa·s in series [1] (343 K). Further, the Glass transition temperature in series [1] was -44 ± 3 °C. In addition, the results for the “molar heat capacity at constant pressure” value in series [2] (298 K) and in series [2] (323 K) were 513 ± 52 J/K/mol and 530 ± 54 J/K/mol, respectively.

For the compound `CCCCCCn1cc[n+](C)c1.[Br-]` [3-hexyl-1-methyl-1H-imidazolium bromide], the Glass transition temperature in series [1] is -49 ± 4 °C. Also, the “molar heat capacity at constant pressure” value is 344 ± 35 J/K/mol in series [2] (298 K) and 357 ± 36 J/K/mol in series [2] (323 K).

On to `CCCCCC[n+]1cccc(C)c1.[Br-]` [1-hexyl-3-methylpyridinium bromide], for which the Glass transition temperature in series [1] is -37 ± 4 °C. The “molar heat capacity at constant pressure” value in series [2] (298 K) turned out to be 343 ± 35 J/K/mol; in series [2] (323 K) it was 358 ± 36 J/K/mol.

Consider `CCCCCC[n+]1ccn(C)c1.O=S(=O)([N-]S(=O)(=O)C(F)(F)F)C(F)(F)F`, for which the viscosity in series [1] (283 K) was found to be 148 ± 10 mPa·s; in series [1] (293 K), 86 ± 5 mPa·s; in series [1] (298 K), 68 ± 4 mPa·s; in series [1] (303 K) it was 55 ± 3 mPa·s; in series [1] (313 K), 37 ± 2 mPa·s; in series [1] (323 K), 26 ± 1 mPa·s. For the same compound, the viscosity in series [1] (333 K) worked out at 19 ± 1 mPa·s; in series [1] (343 K), 15 ± 1 mPa·s. Moreover, the Glass transition temperature in series [1] is -84 ± 4 °C. Moreover, the Triple point temperature in series [1] (Metastable crystal) worked out at 266 ± 3 K. The “molar heat capacity at constant pressure” value in series [2] (298 K) came out at 583 ± 59 J/K/mol; in series [2] (323 K), 604 ± 61 J/K/mol.
